From patent US20250115926A1, “DEREGULATED DHS AND TYRA ENZYMES OF GRASSES ENABLE EFFICIENT PRODUCTION OF BOTH TYROSINE AND PHENYLALANINE” (Wisconsin Alumni Research Foundation, priority 2023, published 2025)
Several values for one entry are separate records, joined by “and”; a condition that tells them apart may be missing. Equal values may be shown once. Where a name gives a salt, the structure may show the parent alone.

Columns and labels:
[1] = test system: Brachypodium distachyon DHS enzymes (BdDHS1a, BdDHS1b, BdDHS2); test: DHS activity: kinetics and effector inhibition, three isoforms together; assay type: biochemical; details: arogenate treated with 1N HCl for 30 minutes (FIG. 16A)
Source text: (§1) To examine their functional properties, the recombinant DHS enzymes of Brachypodium were produced and characterized in vitro.
(§2) As recent studies have shown that plant DHS enzymes are feedback-inhibited by multiple effector molecules^15, 16, we tested the effect of AAAs and another 14 related metabolites, including various intermediates of the shikimate pathway and the pathways downstream of AAAs, on Brachypodium DHS enzymes.
(§3) The DHS assay for UHPLC-MS quantification was set up using the same settings as described in the previous paragraph for the UV-based DHS assay, which guaranteed at least 10 minutes of reaction linearity. After a 10-minute incubation, 20 μL of the reactions (out of a total volume of 50 μL) were mixed into 80 μL of methanol, vortexed and transferred to vials for injection. Analysis of DAHP by UHPLC-MS was conducted using the same chromatographic settings as described for the UHPLC-MS analysis of soluble metabolites and compared with an authentic DAHP standard (Sta. Cruz biotechnology, cat. no. sc-216432).

[2] = molecular target: Arabidopsis thaliana AtDHS2 (Arabidopsis thaliana, UniProt Q00218); test: DHS inhibition assay with hydrolyzed arogenate; assay type: biochemical; details: arogenate treated with 1N HCl for 30 minutes (FIG. 16A)
Arabidopsis thaliana AtDHS2, sequence (Q00218 2-507): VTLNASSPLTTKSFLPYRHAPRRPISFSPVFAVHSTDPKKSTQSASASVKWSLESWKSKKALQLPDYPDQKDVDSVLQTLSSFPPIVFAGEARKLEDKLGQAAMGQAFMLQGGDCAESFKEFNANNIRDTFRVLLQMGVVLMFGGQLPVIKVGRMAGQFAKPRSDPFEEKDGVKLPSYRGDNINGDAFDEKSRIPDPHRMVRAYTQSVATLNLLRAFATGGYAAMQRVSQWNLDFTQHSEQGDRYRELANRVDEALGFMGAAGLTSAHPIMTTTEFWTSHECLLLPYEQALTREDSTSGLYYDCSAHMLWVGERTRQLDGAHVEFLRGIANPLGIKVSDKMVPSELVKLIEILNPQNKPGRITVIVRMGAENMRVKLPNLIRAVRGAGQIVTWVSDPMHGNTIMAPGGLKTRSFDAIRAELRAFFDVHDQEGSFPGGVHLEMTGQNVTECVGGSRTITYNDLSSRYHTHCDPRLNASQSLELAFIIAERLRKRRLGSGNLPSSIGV
Procedure: All DHS effectors tested were included in the initial reaction mixtures at a concentration of 0.5 mM, except for IC50 determination for arogenate and tryptophan, in which variable concentrations were used. To ensure at least 10 minutes of linear reaction, enzyme mass per reaction was carefully adjusted to between 100 to 300 ng (depending on the specific activity of each specific isoform) using DHS storage buffer supplemented with BSA. […] The enzymatic reaction was started with the addition of E4P (variable concentration, see below).

[3] = molecular target: T1, Brachypodium distachyon BdTyrAnc (non-canonical TyrA), SEQ ID NO: 37, recombinant (Brachypodium distachyon, UniProt I1GYB3); test: TyrA arogenate dehydrogenase kinetics and tyrosine inhibition (340 nm); assay type: biochemical; details: arogenate and NADP^+
T1 construct: from cDNA
T1 sequence (I1GYB3 58-361): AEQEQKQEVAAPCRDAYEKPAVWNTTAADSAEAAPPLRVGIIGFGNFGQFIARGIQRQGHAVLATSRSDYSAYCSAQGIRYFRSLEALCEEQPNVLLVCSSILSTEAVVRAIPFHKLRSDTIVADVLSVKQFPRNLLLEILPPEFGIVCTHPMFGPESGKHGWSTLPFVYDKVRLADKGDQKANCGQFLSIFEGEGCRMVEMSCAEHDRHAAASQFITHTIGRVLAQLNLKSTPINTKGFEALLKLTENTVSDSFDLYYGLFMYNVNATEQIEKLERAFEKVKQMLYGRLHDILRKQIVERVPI
Source text: (§4) Next, to study the biochemical properties of grass TyrA enzymes, we generated and characterized recombinant purified TyrA proteins from Brachypodium (BdTyrA) and Sorghum (SbTyrA), two distantly related grass species^43, 44. Whereas TyrA enzymes from dicot plants are generally NADP^+-dependent arogenate dehydrogenases^20, 39, 45, except for NADP^+-prephenate dehydrogenases in the legume family^40, 46, previous reports on the substrate preference of grass TyrA enzymes are inconclusive^17, 19. […] NAD^+-prephenate dehydrogenase activity was absent in all cases, ruling out a significant contamination of the enzyme preparations with the TyrA enzyme from E. coli^47.48.

[4] = molecular target: T2, Sorghum bicolor SbTyrAnc (non-canonical TyrA), SEQ ID NO: 43, recombinant (Sorghum bicolor, UniProt C5Z447); test: as above; assay type: biochemical; details: arogenate and NADP^+
T2 construct: from cDNA
T2 sequence (C5Z447 56-382): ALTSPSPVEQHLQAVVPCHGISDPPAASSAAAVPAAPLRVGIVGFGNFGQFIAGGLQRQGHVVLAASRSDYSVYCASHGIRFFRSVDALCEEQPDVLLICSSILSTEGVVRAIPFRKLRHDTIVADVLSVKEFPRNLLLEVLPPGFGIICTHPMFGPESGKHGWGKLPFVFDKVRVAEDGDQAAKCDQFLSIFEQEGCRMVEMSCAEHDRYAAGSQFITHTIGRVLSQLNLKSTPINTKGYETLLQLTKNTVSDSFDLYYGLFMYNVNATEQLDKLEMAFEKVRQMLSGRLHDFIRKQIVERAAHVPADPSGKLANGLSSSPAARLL
Source text: as §4

[5] = molecular target: Sorghum bicolor SbDHS1a, SEQ ID NO: 9, recombinant (Sorghum bicolor, UniProt C5X2H5); test: DHS activity: effector inhibition; assay type: biochemical; details: effector 0.5 mM
Sorghum bicolor SbDHS1a, SEQ ID NO: 9, recombinant, sequence (C5X2H5 46-540): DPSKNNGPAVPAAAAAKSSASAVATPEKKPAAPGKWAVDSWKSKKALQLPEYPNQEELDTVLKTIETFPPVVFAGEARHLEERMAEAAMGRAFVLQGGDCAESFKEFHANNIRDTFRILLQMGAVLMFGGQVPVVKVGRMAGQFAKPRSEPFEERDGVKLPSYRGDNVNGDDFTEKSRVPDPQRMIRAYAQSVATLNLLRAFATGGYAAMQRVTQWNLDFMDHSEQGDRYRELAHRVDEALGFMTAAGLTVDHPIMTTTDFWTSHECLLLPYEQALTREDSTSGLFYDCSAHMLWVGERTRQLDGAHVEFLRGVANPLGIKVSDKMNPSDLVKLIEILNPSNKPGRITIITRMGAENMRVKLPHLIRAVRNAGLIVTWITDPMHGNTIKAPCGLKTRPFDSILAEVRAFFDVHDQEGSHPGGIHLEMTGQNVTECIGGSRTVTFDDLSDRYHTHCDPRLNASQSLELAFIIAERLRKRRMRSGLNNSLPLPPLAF
Procedure: (§5) In contrast, BdDHS1b was not inhibited by arogenate even up to 2.5 mM. In fact, DHS1b activity increased in the presence of high concentrations of arogenate (FIG. 4F), likely due to high concentrations of contaminant NaCl present in the arogenate preparation (FIG. 16). Under acidic conditions, arogenate is known to undergo a spontaneous dehydration and decarboxylation into […]. […] Like in Brachypodium DHS enzymes, 0.5 mM arogenate inhibited SbDHS1a and SbDHS2 at ˜50% and ˜40%, respectively, but had no effect on SbDHS1b.

[6] = molecular target: T3, Sorghum bicolor SbDHS2, SEQ ID NO: 13, recombinant (Sorghum bicolor, UniProt C5YJQ4); test: DHS activity: effector inhibition; assay type: biochemical; details: effector 0.5 mM
T3 construct: pET28a (NdeI/BamHI), E. coli KRX
T3 sequence (C5YJQ4 42-508): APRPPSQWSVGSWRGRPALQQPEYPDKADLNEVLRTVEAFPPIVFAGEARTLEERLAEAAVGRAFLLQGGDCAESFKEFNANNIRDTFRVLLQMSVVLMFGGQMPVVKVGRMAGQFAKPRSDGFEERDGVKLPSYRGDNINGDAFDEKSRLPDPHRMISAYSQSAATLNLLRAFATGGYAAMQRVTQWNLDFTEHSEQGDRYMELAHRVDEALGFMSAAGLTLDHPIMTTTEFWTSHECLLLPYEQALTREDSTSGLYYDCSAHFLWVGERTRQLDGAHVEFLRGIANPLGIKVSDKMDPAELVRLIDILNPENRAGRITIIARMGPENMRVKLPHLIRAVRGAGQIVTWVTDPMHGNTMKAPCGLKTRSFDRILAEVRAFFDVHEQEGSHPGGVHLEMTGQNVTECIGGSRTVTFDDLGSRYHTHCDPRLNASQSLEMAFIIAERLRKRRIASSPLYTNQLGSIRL
Procedure: as §5

[7] = molecular target: Sorghum bicolor SbDHS1b, SEQ ID NO: 11, recombinant (Sorghum bicolor, UniProt C5WXQ3); test: DHS activity: effector inhibition; assay type: biochemical; details: effector 0.5 mM
Sorghum bicolor SbDHS1b, SEQ ID NO: 11, recombinant, sequence (C5WXQ3 48-551): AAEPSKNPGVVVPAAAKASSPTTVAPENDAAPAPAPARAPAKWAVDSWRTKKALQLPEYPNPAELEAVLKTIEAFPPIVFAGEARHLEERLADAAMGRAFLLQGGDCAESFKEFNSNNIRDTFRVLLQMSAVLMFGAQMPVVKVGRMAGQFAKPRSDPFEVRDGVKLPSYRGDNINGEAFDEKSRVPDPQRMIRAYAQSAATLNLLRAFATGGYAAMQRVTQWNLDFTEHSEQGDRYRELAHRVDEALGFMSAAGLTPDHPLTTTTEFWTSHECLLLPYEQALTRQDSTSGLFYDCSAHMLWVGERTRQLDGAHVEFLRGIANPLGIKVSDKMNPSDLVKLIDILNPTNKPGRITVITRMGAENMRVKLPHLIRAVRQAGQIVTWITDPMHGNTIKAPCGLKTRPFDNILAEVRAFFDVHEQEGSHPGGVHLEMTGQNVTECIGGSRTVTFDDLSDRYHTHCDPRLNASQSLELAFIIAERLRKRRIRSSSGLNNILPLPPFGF
Procedure: as §5

[8] = molecular target: Brachypodium distachyon BdDHS1b, SEQ ID NO: 3, recombinant (Brachypodium distachyon, UniProt I1H4W3); test: DHS activity: kinetics and effector inhibition; assay type: biochemical
Brachypodium distachyon BdDHS1b, SEQ ID NO: 3, recombinant, sequence (I1H4W3 37-542): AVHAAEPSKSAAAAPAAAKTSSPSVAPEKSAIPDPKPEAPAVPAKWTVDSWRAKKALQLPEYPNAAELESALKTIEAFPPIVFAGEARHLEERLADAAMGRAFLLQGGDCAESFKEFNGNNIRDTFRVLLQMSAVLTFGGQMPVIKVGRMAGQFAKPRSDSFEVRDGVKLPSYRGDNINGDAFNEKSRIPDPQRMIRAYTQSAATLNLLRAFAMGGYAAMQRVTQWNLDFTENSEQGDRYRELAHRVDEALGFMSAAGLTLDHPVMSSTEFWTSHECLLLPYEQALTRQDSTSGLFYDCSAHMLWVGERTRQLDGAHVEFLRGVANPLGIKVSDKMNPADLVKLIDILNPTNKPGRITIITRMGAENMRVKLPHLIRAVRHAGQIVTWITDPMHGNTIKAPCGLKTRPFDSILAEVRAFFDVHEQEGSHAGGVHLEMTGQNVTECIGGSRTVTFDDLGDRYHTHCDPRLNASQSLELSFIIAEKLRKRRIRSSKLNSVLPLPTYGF
Source text: as §1, §2, §3

[9] = molecular target: Brachypodium distachyon BdDHS2, SEQ ID NO: 5, recombinant (Brachypodium distachyon, UniProt I1I809); test: DHS activity: kinetics and effector inhibition; assay type: biochemical
Brachypodium distachyon BdDHS2, SEQ ID NO: 5, recombinant, sequence (I1I809 31-503): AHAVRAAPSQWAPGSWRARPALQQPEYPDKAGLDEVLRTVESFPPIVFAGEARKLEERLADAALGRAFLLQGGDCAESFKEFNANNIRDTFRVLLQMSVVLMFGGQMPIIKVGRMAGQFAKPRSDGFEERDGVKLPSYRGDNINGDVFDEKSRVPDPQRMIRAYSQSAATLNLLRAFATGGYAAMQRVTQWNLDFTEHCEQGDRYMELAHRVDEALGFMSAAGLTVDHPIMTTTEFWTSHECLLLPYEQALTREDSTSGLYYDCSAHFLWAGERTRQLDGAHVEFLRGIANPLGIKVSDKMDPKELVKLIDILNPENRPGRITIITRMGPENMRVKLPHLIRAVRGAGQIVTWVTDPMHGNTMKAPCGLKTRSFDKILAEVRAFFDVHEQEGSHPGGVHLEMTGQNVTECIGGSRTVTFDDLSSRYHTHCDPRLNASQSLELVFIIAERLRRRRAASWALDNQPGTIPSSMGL
Source text: as §1, §2, §3

[10] = molecular target: Brachypodium distachyon BdDHS1a, SEQ ID NO: 1, recombinant (Brachypodium distachyon, UniProt I1GSB3); test: DHS activity: kinetics and effector inhibition
Brachypodium distachyon BdDHS1a, SEQ ID NO: 1, recombinant, sequence (I1GSB3 46-537): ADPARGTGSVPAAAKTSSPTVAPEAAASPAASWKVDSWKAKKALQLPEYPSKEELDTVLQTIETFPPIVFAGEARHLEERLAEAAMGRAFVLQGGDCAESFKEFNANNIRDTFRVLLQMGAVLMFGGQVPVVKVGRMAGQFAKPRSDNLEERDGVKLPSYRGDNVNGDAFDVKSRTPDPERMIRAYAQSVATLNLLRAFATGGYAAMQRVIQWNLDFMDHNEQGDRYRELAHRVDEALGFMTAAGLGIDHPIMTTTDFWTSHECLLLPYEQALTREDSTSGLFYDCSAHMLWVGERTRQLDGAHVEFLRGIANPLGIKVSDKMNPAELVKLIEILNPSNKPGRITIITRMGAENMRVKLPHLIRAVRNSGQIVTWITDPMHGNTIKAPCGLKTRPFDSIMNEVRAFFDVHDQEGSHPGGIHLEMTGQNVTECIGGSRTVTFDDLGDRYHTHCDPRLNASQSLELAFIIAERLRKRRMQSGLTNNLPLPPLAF
Source text: as §1, §2, §3

Row | SMILES | inhibition by hydrolyzed arogenate [1] | inhibition by hydrolyzed arogenate ([1]; listed as Arogenate that is hydrolyzed to phenylalanine) | inhibition by hydrolyzed arogenate [2] | kcat/Km [3] [M⁻¹ s⁻¹] | kcat/Km [4] [M⁻¹ s⁻¹] | inhibition at 500 µM [5] [%] | inhibition at 500 µM [6] [%] | effect at 0.5 mM [7] | inhibition by arogenate up to 2.5 mM ([8]; even up to 2.5 mM) | IC50 ([8]; read-out: IC50 (arogenate)) [µM] | IC50 ([9]; 1.5 mM PEP, 2 mM E4P, read-out: IC50 (arogenate)) | mode of inhibition with respect to E4P ([9]; FIG. 18) | mode of inhibition with respect to PEP ([9]; FIG. 18) | inhibition at 500 µM ([9]; effector 0.5 mM, read-out: inhibition at 0.5 mM) [%] | IC50 ([10]; IC50 (arogenate), 1.5 mM PEP, 2 mM E4P) | inhibition at 500 µM ([10]; read-out: inhibition at 0.5 mM) [%]
1 | N[C@@H](Cc1ccccc1)C(=O)O [Arogenate incubated with HCl] | did not inhibit | does not inhibit | does not inhibit | – | – | – | – | – | – | – | – | – | – | – | – | –
2 | N[C@@H](CC1(C(=O)O)C=CC(O)C=C1)C(=O)O (stereo partly shown) [arogenate] | – | – | – | 579600 ± 24300 | 337500 ± 19500 | ~50 | ~40 | no effect | not inhibited | > 500 | ~91 µM and 91 µM | uncompetitive inhibition kinetics | mixed inhibition mechanism | > 75 | ~285 µM and 285 µM | ~50
